Experimental data published in ChEMBL document CHEMBL6103545, “Discovery of GS-2278, a Potent and Selective LPAR1 Antagonist for the Treatment of Idiopathic Pulmonary Fibrosis” (J Med Chem, 2025).

Legend:
[1] = target: Lysophosphatidic acid receptor 1 (Homo sapiens, UniProt Q92633); test: Antagonist activity at LPA1 receptor in serum starved human TWNT-4 cells assessed as nuclear translocation pre-incubated for 1 hr followed by LPA stimulation and measured after 30 min by MRTF-A assay; format: cell-based
Chain of Lysophosphatidic acid receptor 1 (Q92633 whole entry): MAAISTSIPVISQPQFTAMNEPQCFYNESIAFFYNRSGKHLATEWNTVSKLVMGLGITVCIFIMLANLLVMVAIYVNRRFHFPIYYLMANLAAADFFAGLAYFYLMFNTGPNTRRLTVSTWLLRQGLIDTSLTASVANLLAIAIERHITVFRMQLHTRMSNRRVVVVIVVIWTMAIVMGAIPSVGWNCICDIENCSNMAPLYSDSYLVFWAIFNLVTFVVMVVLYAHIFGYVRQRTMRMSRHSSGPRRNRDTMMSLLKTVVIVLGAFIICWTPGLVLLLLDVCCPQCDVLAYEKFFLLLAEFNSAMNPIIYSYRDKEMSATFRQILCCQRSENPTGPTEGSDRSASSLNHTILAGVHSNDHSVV

[2] = Lipophilicity, logD of compound at pH 7.4; format: physicochemical; settings: buffer
[3] = Plasma protein binding in human assessed as unbound fraction incubated for 24 hrs by equilibrium dialysis based Rapidfire-QToF mass spectrometric analysis; format: ADME, cell-free
[4] = Apparent permeability across apical to basolateral side in cMDR1 knockout MDCK-II cells incubated upto 240 mins by RF-QToF analysis; format: ADME, cell-based, Canis lupus familiaris; settings: dog

Cc1ccc(C(=O)Nc2ccc(-c3nnn(C)c3NC(=O)O[C@H](C)c3cc(F)cnc3F)nc2)cn1
EC50 [1]: 109 nM | logD [2]: 1.7 | fraction unbound at 24 h [3]: 0.32 | Papp A→B at 4 h [4]: 7.2 ×10⁻⁶ cm/s

Cc1nc(-c2nnn(C)c2NC(=O)O[C@H](C)c2cccc(F)c2)ccc1NS(C)(=O)=O
logD [2]: 2.2 | fraction unbound at 24 h [3]: 0.22 | Papp A→B at 4 h [4]: 23 ×10⁻⁶ cm/s

Cc1nc(-c2nnn(C)c2NC(=O)O[C@H](C)c2ccccc2Cl)ccc1NS(C)(=O)=O
EC50 [1]: 11 nM | logD [2]: 2.5 | fraction unbound at 24 h [3]: 0.13 | Papp A→B at 4 h [4]: 27 ×10⁻⁶ cm/s

C[C@@H](OC(=O)Nc1c(-c2ccc(NC(=O)C3(C(F)F)CC3)cn2)nnn1C)c1cc(F)cnc1F
EC50 [1]: 5250 nM | logD [2]: 2.4 | fraction unbound at 24 h [3]: 0.56 | Papp A→B at 4 h [4]: 40 ×10⁻⁶ cm/s

Cc1nc(-c2nnn(C)c2NC(=O)O[C@H](C)c2cc(F)cnc2Cl)ccc1NS(C)(=O)=O
EC50 [1]: 83 nM | logD [2]: 1.8 | fraction unbound at 24 h [3]: 0.13 | Papp A→B at 4 h [4]: 13 ×10⁻⁶ cm/s

C[C@@H](OC(=O)Nc1c(-c2ccc(N(C)S(C)(=O)=O)cc2)nnn1C)c1ccccc1Cl
EC50 [1]: 890 nM | logD [2]: 2.7

CC(=O)Nc1ccc(-c2nnn(C)c2NC(=O)O[C@H](C)c2cc(F)cnc2F)nc1
EC50 [1]: 1350 nM | logD [2]: 1.3 | fraction unbound at 24 h [3]: 0.36 | Papp A→B at 4 h [4]: 7.7 ×10⁻⁶ cm/s

C[C@@H](OC(=O)Nc1c(-c2ccc(NS(C)(=O)=O)cc2)nnn1C)c1ccccc1Cl
EC50 [1]: 12 nM | logD [2]: 2.4

Cc1nc(-c2nnn(C)c2NC(=O)O[C@H](C)c2cc(F)ccc2F)ccc1NS(C)(=O)=O
EC50 [1]: 953 nM | logD [2]: 2.4 | fraction unbound at 24 h [3]: 0.19 | Papp A→B at 4 h [4]: 20 ×10⁻⁶ cm/s

C[C@@H](OC(=O)Nc1c(-c2ccc(NC(=O)C(F)(F)F)cc2)nnn1C)c1ccccc1Cl
EC50 [1]: 20 nM | logD [2]: 3.3

CNS(=O)(=O)c1ccc(-c2nnn(C)c2NC(=O)O[C@H](C)c2ccccc2Cl)cc1
EC50 [1]: 893 nM | logD [2]: 2.6

C[C@@H](OC(=O)Nc1c(-c2ccc(O)cc2)nnn1C)c1ccccc1Cl
EC50 [1]: 237 nM | logD [2]: 2.5

C[C@@H](OC(=O)Nc1c(-c2ccc(N)cc2)nnn1C)c1ccccc1Cl
EC50 [1]: 417 nM | logD [2]: 2.3

Cc1nc(-c2nnn(C)c2NC(=O)O[C@H](C)c2cccnc2F)ccc1NS(C)(=O)=O
EC50 [1]: 1370 nM | logD [2]: 1.4 | fraction unbound at 24 h [3]: 0.38 | Papp A→B at 4 h [4]: 5.6 ×10⁻⁶ cm/s

C[C@@H](OC(=O)Nc1c(-c2ccc(NC(=O)C3CC(F)(F)C3)cn2)nnn1C)c1cc(F)cnc1F
EC50 [1]: 21 nM | logD [2]: 2.4 | fraction unbound at 24 h [3]: 0.21 | Papp A→B at 4 h [4]: 15 ×10⁻⁶ cm/s

C[C@@H](OC(=O)Nc1c(-c2ccc(S(N)(=O)=O)cc2)nnn1C)c1ccccc1Cl
logD [2]: 2.2

C[C@@H](OC(=O)Nc1c(-c2ccc(NS(C)(=O)=O)cn2)nnn1C)c1cccc(F)c1
EC50 [1]: 522 nM | logD [2]: 1.9 | fraction unbound at 24 h [3]: 0.25 | Papp A→B at 4 h [4]: 15 ×10⁻⁶ cm/s

C[C@@H](OC(=O)Nc1c(-c2ccc(NS(=O)(=O)CC#N)cc2)nnn1C)c1ccccc1Cl
EC50 [1]: 32 nM | logD [2]: 2.2

Cc1nc(-c2nnn(C)c2NC(=O)O[C@H](C)c2cc(F)cnc2F)ccc1NS(C)(=O)=O
EC50 [1]: 124 nM | logD [2]: 1.7 | fraction unbound at 24 h [3]: 0.15 | Papp A→B at 4 h [4]: 8.8 ×10⁻⁶ cm/s

C[C@@H](OC(=O)Nc1c(-c2ccc(NC(=O)[C@@H]3CC3(F)F)cn2)nnn1C)c1cc(F)cnc1F
EC50 [1]: 576 nM | logD [2]: 2.2 | fraction unbound at 24 h [3]: 0.35 | Papp A→B at 4 h [4]: 12 ×10⁻⁶ cm/s

C[C@@H](OC(=O)Nc1c(-c2ccc(NS(C)(=O)=O)cn2)nnn1C)c1ccccc1
logD [2]: 1.9 | fraction unbound at 24 h [3]: 0.27 | Papp A→B at 4 h [4]: 13 ×10⁻⁶ cm/s

C[C@@H](OC(=O)Nc1c(-c2ccc(NS(C)(=O)=O)cn2)nnn1C)c1cc(F)ccc1F
EC50 [1]: 122 nM | logD [2]: 2.1 | fraction unbound at 24 h [3]: 0.18 | Papp A→B at 4 h [4]: 16 ×10⁻⁶ cm/s

C[C@@H](OC(=O)Nc1c(-c2ccc(S(=O)(=O)NC3CC3)cc2)nnn1C)c1ccccc1Cl
logD [2]: 2.9

C[C@@H](OC(=O)Nc1c(-c2ccc(N)cn2)nnn1C)c1cc(F)cnc1F.Cl
EC50 [1]: 7920 nM | logD [2]: 1.3 | fraction unbound at 24 h [3]: 0.71 | Papp A→B at 4 h [4]: 15 ×10⁻⁶ cm/s

C[C@@H](OC(=O)Nc1c(-c2ccc(NC(=O)C34CC(C#N)(C3)C4)cn2)nnn1C)c1cc(F)cnc1F
EC50 [1]: 51 nM | logD [2]: 2 | fraction unbound at 24 h [3]: 0.31 | Papp A→B at 4 h [4]: 8.3 ×10⁻⁶ cm/s

Cc1nc(-c2nnn(C)c2NC(=O)O[C@@H](c2ccccc2)C(F)(F)F)ccc1NS(C)(=O)=O
EC50 [1]: 45 nM | logD [2]: 2.5 | fraction unbound at 24 h [3]: 0.2 | Papp A→B at 4 h [4]: 18 ×10⁻⁶ cm/s

C[C@@H](OC(=O)Nc1c(-c2ccc(NC(=O)C34CC(F)(C3)C4)cn2)nnn1C)c1cc(F)cnc1F
EC50 [1]: 77 nM | logD [2]: 2.3 | fraction unbound at 24 h [3]: 0.33 | Papp A→B at 4 h [4]: 11 ×10⁻⁶ cm/s

Cc1nc(-c2nnn(C)c2NC(=O)O[C@H](CF)c2ccccc2)ccc1NS(C)(=O)=O
EC50 [1]: 31 nM | logD [2]: 1.9 | fraction unbound at 24 h [3]: 0.29 | Papp A→B at 4 h [4]: 17 ×10⁻⁶ cm/s

C[C@@H](OC(=O)Nc1c(-c2ccc(NC(=O)c3ccnc(C(F)(F)F)c3)cn2)nnn1C)c1cc(F)cnc1F
logD [2]: 2.7 | fraction unbound at 24 h [3]: 0.14 | Papp A→B at 4 h [4]: 4.6 ×10⁻⁶ cm/s

C[C@@H](OC(=O)Nc1c(-c2ccc(NS(C)(=O)=O)cn2)nnn1C)c1cc(F)cnc1Cl
logD [2]: 1.7 | fraction unbound at 24 h [3]: 0.18 | Papp A→B at 4 h [4]: 5.5 ×10⁻⁶ cm/s

C[C@@H](OC(=O)Nc1c(-c2ccc(NC(=O)C3(C#N)CC3)cn2)nnn1C)c1cc(F)cnc1F
EC50 [1]: 37 nM | logD [2]: 1.9 | fraction unbound at 24 h [3]: 0.46 | Papp A→B at 4 h [4]: 21 ×10⁻⁶ cm/s

Cc1nc(-c2nnn(C)c2NC(=O)O[C@H](C)c2ccccc2)ccc1NS(C)(=O)=O
logD [2]: 2.2 | fraction unbound at 24 h [3]: 0.2 | Papp A→B at 4 h [4]: 27 ×10⁻⁶ cm/s

Cn1nnc(-c2ccc(NS(C)(=O)=O)cn2)c1NC(=O)O[C@H](CF)c1ccccc1
EC50 [1]: 81 nM | logD [2]: 1.6 | fraction unbound at 24 h [3]: 0.27 | Papp A→B at 4 h [4]: 5 ×10⁻⁶ cm/s

C[C@@H](OC(=O)Nc1c(-c2ccc(NS(C)(=O)=O)cn2)nnn1C)c1cccnc1F
EC50 [1]: 186 nM | logD [2]: 1.1 | fraction unbound at 24 h [3]: 0.3 | Papp A→B at 4 h [4]: 4.4 ×10⁻⁶ cm/s

C[C@@H](OC(=O)Nc1c(-c2ccc(NC(=O)c3ccc(C(F)(F)F)nc3)cn2)nnn1C)c1cc(F)cnc1F
EC50 [1]: 25 nM | logD [2]: 2.7 | fraction unbound at 24 h [3]: 0.15 | Papp A→B at 4 h [4]: 14 ×10⁻⁶ cm/s

C[C@@H](OC(=O)Nc1c(-c2ccc(NS(=O)(=O)C(C)(C)C)cc2)nnn1C)c1ccccc1Cl
EC50 [1]: > 10000 nM | logD [2]: 3

C[C@@H](OC(=O)Nc1c(-c2ccc(NS(C)(=O)=O)cn2)nnn1C)c1ccccc1Cl
EC50 [1]: 30 nM | logD [2]: 2.2 | Papp A→B at 4 h [4]: 19 ×10⁻⁶ cm/s

CC(=O)N(C)c1ccc(-c2nnn(C)c2NC(=O)O[C@H](C)c2ccccc2Cl)cc1
EC50 [1]: 7530 nM | logD [2]: 2.2

C[C@@H](OC(=O)Nc1c(-c2ccccc2)nnn1C)c1ccccc1Cl
logD [2]: 3.2

C[C@@H](OC(=O)Nc1c(-c2ccc(NS(C)(=O)=O)cn2)nnn1C)c1cccnc1Cl
EC50 [1]: 108 nM | logD [2]: 1.3 | fraction unbound at 24 h [3]: 0.26 | Papp A→B at 4 h [4]: 2.8 ×10⁻⁶ cm/s
